Laboratory results published in patent US20260265233A1, “BENZOTHIOPHENE DERIVATIVES AS RXFP1 AGONISTS” (BRISTOL-MYERS SQUIBB COMPANY, priority 2021, published 2026).

The molecules below were run against T1, human RXFP1 (Homo sapiens, UniProt Q9HBX9) (assay: hRXFP1 HEK293 cAMP assay (HTRF)). Conditions: HEK293 cells stably expressing human RXFP1; 30 min at rt; intracellular cAMP by HTRF.
T1 construct: expressed in transfected cells
T1 sequence (Q9HBX9 1-757): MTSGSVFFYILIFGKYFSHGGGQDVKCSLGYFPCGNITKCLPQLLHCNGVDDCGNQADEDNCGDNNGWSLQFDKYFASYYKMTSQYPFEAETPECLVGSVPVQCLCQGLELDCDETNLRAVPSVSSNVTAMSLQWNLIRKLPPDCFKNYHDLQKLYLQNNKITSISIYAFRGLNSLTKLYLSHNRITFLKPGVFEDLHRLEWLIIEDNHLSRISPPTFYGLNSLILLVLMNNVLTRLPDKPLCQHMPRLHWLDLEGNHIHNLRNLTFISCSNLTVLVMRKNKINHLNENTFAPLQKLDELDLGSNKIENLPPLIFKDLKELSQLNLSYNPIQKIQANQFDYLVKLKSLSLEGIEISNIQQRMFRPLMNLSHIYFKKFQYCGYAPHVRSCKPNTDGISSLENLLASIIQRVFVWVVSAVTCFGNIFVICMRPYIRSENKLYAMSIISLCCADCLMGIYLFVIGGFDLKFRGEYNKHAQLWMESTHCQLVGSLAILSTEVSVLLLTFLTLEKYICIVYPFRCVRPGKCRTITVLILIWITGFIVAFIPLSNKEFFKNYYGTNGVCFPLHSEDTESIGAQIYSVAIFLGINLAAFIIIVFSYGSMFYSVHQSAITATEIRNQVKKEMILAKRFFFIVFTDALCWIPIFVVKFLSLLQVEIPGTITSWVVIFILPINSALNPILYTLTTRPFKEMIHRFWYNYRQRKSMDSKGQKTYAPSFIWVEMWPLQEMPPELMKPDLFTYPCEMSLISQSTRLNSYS
Format: cell-based
How it was run: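 HEK293 cells stably expressing human RXFP1 treated 30 min at rt with compound (0.010 nM to 50 μM, 2% DMSO) in HBSS/HEPES buffer with 0.5 mM IBMX. Intracellular cAMP measured by HTRF (665/590 nm ratio) against a cAMP standard curve; potency fitted by 4-parameter logistic.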
In the case of COc1ccc(C2=NC(C(=O)N3CC(C(C)(C)O)C3)CO2)cc1C(=O)Nc1c(C(=O)Nc2ccc(F)c(C(F)(F)F)c2)sc2cc(C(F)(F)F)ccc12 (stereo not shown) [Example 281, N-[4-fluoro-3-(trifluoromethyl)phenyl]-3-(5-{4-[3-(2-hydroxypropan-2-yl)azetidine-1-carbonyl]-4,5-dihydro-1,3-oxazol-2-yl}-2-methoxy-benzamido)-6-(trifluoromethyl)-1-benzothiophene-2-carboxamide], the EC50 is reported as 95.1 nM.
Molecule COc1ccc(-c2ccc(F)c(C(=O)O)c2)cc1C(=O)Nc1c(C(=O)Nc2ccc(F)c(C(F)(F)F)c2)sc2cc(C(F)(F)F)ccc12 [Example 13, 4-fluoro-3′-((2-((4-fluoro-3-(trifluoromethyl)phenyl)carbamoyl)-6-(trifluoromethyl)benzo[b]thiophen-3-yl)carbamoyl)-4′-methoxy-[1, 1′-biphenyl]-3-carboxylic acid] has an EC50 of 87 nM.
COc1ccc(C2=NOC3CC(CO)CC23)cc1C(=O)Nc1c(C(=O)Nc2ccc(F)c(C(F)(F)F)c2)sc2cc(C(F)(F)F)ccc12 (single isomer, unassigned) [Example 268, N-[4-fluoro-3-(trifluoromethyl)phenyl]-3-{5-[5-(hydroxymethyl)-3aH,4H,5H,6H, 6aH-cyclopenta[d] [1,2]oxazol-3-yl]-2-methoxy-benzamido}-6-(trifluoromethyl)-1-benzothiophene-2-carboxamide] gave an EC50 of 4.9 nM.
With COc1ccc(C(=O)N2CC3(C2)CS(=O)(=O)C3)cc1C(=O)Nc1c(C(=O)Nc2ccc(F)c(C(F)(F)F)c2)sc2cc(C3CC3)ncc12 [Example 29, 6-cyclopropyl-3-(5-(2,2-dioxido-2-thia-6-azaspiro [3.3]heptane-6-carbonyl)-2-methoxybenzamido)-N-(4-fluoro-3-(trifluoromethyl)phenyl) thieno [3,2-c]pyridine-2-carboxamide] the EC50 was 1340 nM.
For COc1ccc(C2=NOC3CN(CC(C)(C)O)CC23)cc1C(=O)Nc1c(C(=O)Nc2ccc(F)c(C(F)(F)F)c2)sc2cc(C(F)(F)F)ccc12 (single isomer, unassigned) [Example 54, N-(4-fluoro-3-(trifluoromethyl)phenyl)-3-(5-(5-(2-hydroxy-2-methylpropyl)-3a, 5,6,6a-tetrahydro-4H-pyrrolo[3,4-d]isoxazol-3-yl)-2-methoxybenzamido)-6-(trifluoromethyl)benzo[b]thiophene-2-carboxamide], the EC50 was 306 nM.
With COc1ccc(C2CCN(C3COC3)C2)cc1C(=O)Nc1c(C(=O)Nc2ccc(F)c(C(F)(F)F)c2)sc2cc(C(F)(F)F)ccc12 (stereo not shown) [Example 154, N-(4-fluoro-3-(trifluoromethyl)phenyl)-3-(2-methoxy-5-(1-(oxetan-3-yl)pyrrolidin-3-yl)benzamido)-6-(trifluoromethyl) benzo[b] thiophene-2-carboxamide] the EC50 was 553 nM.
Work on COc1ccc(C2CCN(C(=O)CC(C)(C)O)C2)cc1C(=O)Nc1c(C(=O)Nc2ccc(F)c(C(F)(F)F)c2)sc2cc(C(F)(F)F)ccc12 (stereo not shown) [Example 136, N-(4-fluoro-3-(trifluoromethyl)phenyl)-3-(5-(1-(3-hydroxy-3-methylbutanoyl)pyrrolidin-3-yl)-2-methoxy-benzamido)-6-(trifluoromethyl) benzo[b] thiophene-2-carboxamide] yielded an EC50 of 514 nM.
With COc1ccc(C2CCCN(C(=O)C(C)(C)O)C2)cc1C(=O)Nc1c(C(=O)Nc2ccc(F)c(C(F)(F)F)c2)sc2cc(C(F)(F)F)ccc12 (stereo not shown) [Example 104, N-[4-fluoro-3-(trifluoromethyl)phenyl]-3-{5-[1-(2-hydroxy-2-methylpropanoyl)piperidin-3-yl]-2-methoxy-benzamido}-6-(trifluoromethyl)-1-benzothiophene-2-carboxamide] the EC50 was 277 nM.
Work on COc1ccc(C2=NCC3(CCCCC3)O2)cc1C(=O)Nc1c(C(=O)Nc2ccc(F)c(C(F)(F)F)c2)sc2cc(C(F)(F)F)ccc12 [Example 58, N-(4-fluoro-3-(trifluoromethyl)phenyl)-3-(2-methoxy-5-(1-oxa-3-azaspiro[4.5]dec-2-en-2-yl)benzamido)-6-(trifluoromethyl)benzo[b]thiophene-2-carboxamide] yielded an EC50 of 612 nM.
COc1ccc(C(=O)N2CCC[C@@H](O)C2)cc1C(=O)Nc1c(C(=O)Nc2ccc(F)c(C(F)(F)F)c2)sc2cc(C(F)(F)F)ccc12 [Example 219, (R)-N-(4-fluoro-3-(trifluoromethyl)phenyl)-3-(5-(3-hydroxy-piperidine-1-carbonyl)-2-methoxy-benzamido)-6-(trifluoromethyl) benzo[b] thiophene-2-carboxamide] was tested, and the EC50 was 1140 nM.
With COc1ccc(C2CCCNCC2)cc1C(=O)Nc1c(C(=O)Nc2ccc(F)c(C(F)(F)F)c2)sc2cc(C(F)(F)F)ccc12 (stereo not shown) [Example 39, 3-(5-(azepan-4-yl)-2-methoxybenzamido)-N-(4-fluoro-3-(trifluoromethyl)phenyl)-6-(trifluoromethyl)benzo[b]thiophene-2-carboxamide] the EC50 was 2800 nM.
COc1ccc(C2CCN(C(=O)C3CC3(F)F)C2)cc1C(=O)Nc1c(C(=O)Nc2ccc(F)c(C(F)(F)F)c2)sc2cc(C(F)(F)F)ccc12 (stereo not shown) [Example 134, 3-(5-(1-(2,2-difluorocyclo-propane-1-carbonyl)pyrrolidin-3-yl)-2-methoxy-benzamido)-N-(4-fluoro-3-(trifluoromethyl)phenyl)-6-(trifluoromethyl) benzo[b] thiophene-2-carboxamide] gave an EC50 of 634 nM.
COc1ccc(C2=NOC3CC(C(C)(C)O)CC23)cc1C(=O)Nc1c(C(=O)Nc2ccc(F)c(C(F)(F)F)c2)sc2cc(C(F)(F)F)ccc12 (single isomer, unassigned) [Example 56, N-(4-fluoro-3-(trifluoromethyl)phenyl)-3-(5-(5-(2-hydroxypropan-2-yl)-3a, 5,6,6a-tetrahydro-4H-cyclopenta[d]isoxazol-3-yl)-2-methoxybenzamido)-6-(trifluoromethyl)benzo[b]thiophene-2-carboxamide] showed an EC50 of 9.5 nM.
COc1cc(C)c(C(=O)NCC2(S(C)(=O)=O)CC2)cc1C(=O)Nc1c(C(=O)Nc2ccc(F)c(C(F)(F)F)c2)sc2cc(C(F)(F)F)ccc12 [Example 187, N1-(2-((4-fluoro-3-(trifluoromethyl)phenyl)carbamoyl)-6-(trifluoromethyl)benzo[b]thiophen-3-yl)-6-methoxy-4-methyl-N3-((1-(methylsulfonyl)cyclopropyl)methyl) isophthalamide] was tested, and the EC50 was 328 nM.
With COc1ccc(C2CCCN(CC(=O)N(C)C)C2)cc1C(=O)Nc1c(C(=O)Nc2ccc(F)c(C(F)(F)F)c2)sc2cc(C(F)(F)F)ccc12 (single isomer, unassigned) [Example 82, 3-(5-(1-(2-(dimethylamino)-2-oxoethyl)piperidin-3-yl)-2-methoxy-benzamido)-N-(4-fluoro-3-(trifluoromethyl)phenyl)-6-(trifluoromethyl) benzo[b] thiophene-2-carboxamide] the EC50 was 978 nM.
With COc1ccc(C2CC3(C2)CN(C(=O)CC(C)(C)O)C3)cc1C(=O)Nc1c(C(=O)Nc2ccc(F)c(C(F)(F)F)c2)sc2cc(C(F)(F)F)ccc12 [Example 109, N-(4-fluoro-3-(trifluoromethyl)phenyl)-3-(5-(2-(3-hydroxy-3-methylbutanoyl)-2-azaspiro[3.3]heptan-6-yl)-2-methoxy-benzamido)-6-(trifluoromethyl) benzo[b] thiophene-2-carboxamide] the EC50 was 509 nM.
